Experimental data reported in US8709405B2, “Cancer vaccines containing epitopes of oncofetal antigen” (South Alabama Medical Science Foundation, priority 2002, dated 2014).

How the values were obtained:
Format in all cases: cell-based, BALB/c mouse
[1] = test system: CD8 iLRP-specific T cell clone M11 (Ts); test: BUdR incorporation ELISA proliferation assay, Ts clone M11; conditions: Table 5
Description: (§1) The epitopes recognized by 15 iLRP-reactive T cell clones derived from either naive BALB/c mice, BALB/c mice bearing MCA1315 fibrosarcoma tumors, or from BALB/c mice immunized with either 1 or 10 μg of recombinant murine iLRP were determined by testing the proliferation of those clones to overlapping peptides spanning the region of the iLRP molecule recognized by each clone in the presence of IL-2, as a growth factor for T cells and irradiated, T cell-depleted, syngeneic spleen cells as antigen-presenting cells. Proliferation was measured through ELISA determination of 5-bromodeoxyuridine incorporation during culture.
(§2) More specifically, the epitope-specificity of the iLRP-specific Th1, Tc, and Ts clones was determined using a modification of the 5′-bromodeoxyuridine (BudR) incorporation ELISA technique described in Rohrer, J. W., A. L. Barsoum, D. L. Dyess, J. A. Tucker, and J. H. Coggin, Jr. 1999. Human breast carcinoma patients develop clonable oncofetal antigen-specific effector and regulatory T lymphocytes. J. Immunol. 162:6880, using the Biotrak BUdR incorporation assay (Amersham, Arlington Heights, Ill.). […] When the required color density was reached, the reaction was stopped by adding 25 μl of 1M sulfuric acid to each well and the plate read on a microELISA reader at 450 nm. […]

[2] = test system: iLRP-specific T cell clone L4 (Tc); test: BUdR incorporation ELISA proliferation assay, Tc clone L4; conditions: Table 8; overlapping 12-mers of iLRP 136-166; 100 U/ml IL-2
Description: as §1
(§3) More specifically, the epitope-specificity of the iLRP-specific Th1, Tc, and Ts clones was determined using a modification of the 5′-bromodeoxyuridine (BudR) incorporation ELISA technique described in Rohrer, J. W., A. L. Barsoum, D. L. Dyess, J. A. Tucker, and J. H. Coggin, Jr. 1999. Human breast carcinoma patients develop clonable oncofetal antigen-specific effector and regulatory T lymphocytes. J. Immunol. 162:6880, using the Biotrak BUdR incorporation assay (Amersham, Arlington Heights, Ill.). Briefly, at the time of restimulation of the clones, a portion of the cloned T cells were assayed for proliferation to antigen-presenting cells (APC) and various iLRP peptides. The assay was performed with 10,000 viable cloned T cells/well plus […] irradiated syngeneic spleen cells (APC) plus 100 ng/well of intact iLRP/OFA protein or the various truncated iLRP/OFA proteins or the various iLRP/OFA peptides in Iscove's modified Dulbecco's medium (IMDM) containing 2 mM L-glutamine, 100 U/ml of penicillin G, 100 μg of streptomycin sulfate, and 10% fetal calf serum. The cells were cultured for a total of 48 hours. After 24 hours of culture 5′-bromodeoxyuridine was added to a final concentration of 10 μM/well. The cells were cultured for another 24 hours. At the end of the last 24 hours of incubation, the plates were centrifuged at 300×g for 10 min, and the labelling medium removed. The cells were then dried at 60° C. for 1 hour. The cells were fixed with an ethanol fixative provided in the Biotrak kit for 30 min at room temperature, fixative was removed, and the wells were coated with blocking buffer (1% protein in 50 mM Tris-HCl, 150 mM NaCl, pH 7.4) and incubated for 30 min at room temperature. The blocking buffer was removed, 100 μl of 1:100 diluted peroxidase-labelled anti-BUdR antibody was added to each well and the plates were incubated for 90 min at room temperature. The antibody solution was removed, and the wells washed three times with 300 μl/well of wash buffer. 200 μl of 3,3′, 5,5′-tetramethylbenzidine in […] DMSO was added to each well and the plate was covered and incubated at room temperature while oscillating gently for 5-30 min. When the required color density was reached, the reaction was stopped by adding 25 μl of 1M sulfuric acid to each well and the plate read on a microELISA reader at 450 nm.
(§4) Each time the assay was done, clones were stimulated by APC and intact iLRP/OFA as a positive control. Cloned T cells were also cultured in the presence of only APC in IMDM or in the presence of APC and an iLRP/OFA peptide or truncated iLRP/OFA known not to stimulate the clones being tested. These served as negative controls. In wells where BUdR was incorporated (the iLRP/OFA stimulates proliferation of the T cells), the A450 was at least 10-fold and often approximately 50-fold higher than the negative controls. Because the Ts cells always presented with apparently low affinity T cell antigen receptors, their BUdR incorporation gave A450 values about 10 times higher than the negative controls (e.g., about 0.2 vs. 0.02), but about 5 times lower than the Th1 or Tc clones (e.g., usually about 0.9). […]

[3] = test system: iLRP-specific T cell clone H2 (Ts); test: BUdR incorporation ELISA proliferation assay, Ts clone H2; conditions: for BudR Incorporation (A450), T cell clone H2 (Ts): Table 8, overlapping 12-mers of iLRP 136-166, 100 U/ml IL-2
Description: as §1, §3, §4

[4] = test system: iLRP-specific T cell clone L5 (Tc); test: BUdR incorporation ELISA proliferation assay, Tc clone L5; conditions: for BudR Incorporation (A450), T cell clone L5 (Tc): Table 8, overlapping 12-mers of iLRP 136-166, 100 U/ml IL-2
Description: as §1, §3, §4

[5] = test system: iLRP-specific T cell clone H3 (Th1); test: BUdR incorporation ELISA proliferation assay, Th1 clone H3; conditions: for BudR Incorporation (A450), T cell clone H3 (Th1): Table 8, overlapping 12-mers of iLRP 136-166, 100 U/ml IL-2
Description: as §1, §3, §4

[6] = test system: iLRP-specific Th1, Tc, and Ts clones; test: BUdR incorporation proliferation assay, comparison across iLRP-specific T cell clone types; conditions: Table 14; type of T cell clone reactive with the 12-mer
Description: as §1, §3
(§5) Each time the assay was done, clones were stimulated by APC and intact iLRP/OFA as a positive control. Cloned T cells were also cultured in the presence of only APC in IMDM or in the presence of APC and an iLRP/OFA peptide or truncated iLRP/OFA known not to stimulate the clones being tested. These served as negative controls. In wells where BUdR was incorporated (the iLRP/OFA stimulates proliferation of the T cells), the A450 was at least 10-fold and often approximately 50-fold higher than the negative controls. Because the Ts cells always presented with apparently low affinity T cell antigen receptors, their BUdR incorporation gave A450 values about 10 times higher than the negative controls (e.g., about 0.2 vs. 0.02), but about 5 times lower than the Th1 or Tc clones (e.g., usually about 0.9).
Determination of the portion of the truncated iLRP/OFA protein or peptide reacted to by a given clone was done by analysis of the proliferation pattern to the various truncated proteins or peptides. […]

[7] = test system: iLRP-specific T cell clone H4 (Ts); test: BUdR incorporation ELISA proliferation assay, Ts clone H4; conditions: for BudR Incorporation (A450), T cell clone H4 (Ts): Table 8, overlapping 12-mers of iLRP 136-166, 100 U/ml IL-2
Description: as §1, §3, §4

Tc Clone L2 = test: BUdR incorporation ELISA proliferation assay, Tc clone L2; conditions: Table 11
Description: as §1, §2

CD8 T cell clone M3 (Tc) = test: BUdR incorporation ELISA proliferation assay, Tc clone M3; conditions: Table 4
Description: as §1, §2

[8] = test system: CD8 iLRP-specific T cell clone L6 (Tc); test: BUdR incorporation ELISA proliferation assay, Tc clone L6; conditions: Table 5
Description: as §1
More specifically, the epitope-specificity of the iLRP-specific Th1, Tc, and Ts clones was determined using a modification of the 5′-bromodeoxyuridine (BudR) incorporation ELISA technique described in Rohrer, J. W., A. L. Barsoum, D. L. Dyess, J. A. Tucker, and J. H. Coggin, Jr. 1999. Human breast carcinoma patients develop clonable oncofetal antigen-specific effector and regulatory T lymphocytes. J. Immunol. 162:6880, using the Biotrak BUdR incorporation assay (Amersham, Arlington Heights, Ill.). Briefly, at the time of restimulation of the clones, a portion of the cloned T cells were assayed for proliferation to antigen-presenting cells (APC) and various iLRP peptides. The assay was performed with 10,000 viable cloned T cells/well plus […] irradiated syngeneic spleen cells (APC) plus 100 ng/well of intact iLRP/OFA protein or the various truncated iLRP/OFA proteins or the various iLRP/OFA peptides in Iscove's modified Dulbecco's medium (IMDM) containing 2 mM L-glutamine, 100 U/ml of penicillin G, 100 μg of streptomycin sulfate, and 10% fetal calf serum. The cells were cultured for a total of 48 hours. After 24 hours of culture 5′-bromodeoxyuridine was added to a final concentration of 10 μM/well. The cells were cultured for another 24 hours. […] When the required color density was reached, the reaction was stopped by adding 25 μl of 1M sulfuric acid to each well and the plate read on a microELISA reader at 450 nm. […]

[9] = test system: iLRP-specific T cell clone L1 (CD8 Ts); test: BUdR incorporation ELISA proliferation assay, Ts clone L1; conditions: Table 3; for BUdR Incorporation (A450) of iLRP-specific T cell clone L1 cells, Expt. 1 / BUdR Incorporation (A450) of iLRP-specific T cell clone L1 cells, Expt. 2: 100 ng/well stimulant with irradiated syngeneic spleen cells (APC), 48 h culture
Description: as §1, §3, §5
Overlapping 12mer peptides of the first 25 amino acids of murine iLRP were produced. Thus, peptides 1-4 corresponded to amino acid residues 1-12, 5-16, 9-20 and 17-28 of murine iLRP. […]

ATGATPIAGRFT [P18 (aa 93-104)]
Proliferation of clone M11 (in words) [1]: proliferated equally well

CNTDSPLRYVDI [Peptide 31-4]
BudR Incorporation (A450), T cell clone L4 (Tc) [2]: .023 A450
BudR Incorporation (A450), T cell clone H2 (Ts) [3]: .016 A450
BudR Incorporation (A450), T cell clone L5 (Tc) [4]: .89 A450
Proliferative response of Tc clone L5 (in words) ([4]; text on Table 8): equal proliferative response
BudR Incorporation (A450), T cell clone H3 (Th1) [5]: .81 A450
Response of Th1 clone H3 (in words) ([5]; text on Table 8): slightly lower response
Reactive T cell clones [6]: Tc & TH1
BudR Incorporation (A450), T cell clone H4 (Ts) [7]: .016 A450

EASYVNLPTIAL [Peptide 31-1]
BudR Incorporation (A450), T cell clone L4 (Tc) [2]: .015 A450
BudR Incorporation (A450), T cell clone H2 (Ts) [3]: .23 A450
Proliferation of Ts clone H2 (in words) ([3]; text on Table 8): proliferated equally
BudR Incorporation (A450), T cell clone L5 (Tc) [4]: .017 A450
BudR Incorporation (A450), T cell clone H3 (Th1) [5]: .016 A450
Reactive T cell clones [6]: Ts
BudR Incorporation (A450), T cell clone H4 (Ts) [7]: .22 A450
Proliferation of Ts clone H4 (in words) ([7]; text on Table 8): proliferated equally

EEFQGEWTAPAP [P17 (225-236)]
Proliferation of CD8 Tc clone L2 (in words) (Tc Clone L2): proliferated identically

INLKRTWEKLLL [P7 (aa 49-60)]
Proliferation of clone M3 (in words) (CD8 T cell clone M3 (Tc)): proliferated to iLRP peptides 7 and 8 equally well

ISSRNTGQRAVL [P14 (aa 77-88)]
Proliferation of clone L6 (in words) [8]: proliferated equally well

KLLAAGTHLGGT [Peptide 4]
Proliferation of clone L1 (in words) [9]: proliferates to a peptide contained almost entirely in peptide 4
BUdR Incorporation (A450) of iLRP-specific T cell clone L1 cells, Expt. 1 [9]: .28 A450
BUdR Incorporation (A450) of iLRP-specific T cell clone L1 cells, Expt. 2 [9]: .27 A450

LDVLQMKEEDVL [Peptide 2]
BUdR Incorporation (A450) of iLRP-specific T cell clone L1 cells, Expt. 1 [9]: .017 A450
BUdR Incorporation (A450) of iLRP-specific T cell clone L1 cells, Expt. 2 [9]: .019 A450

MSGALDVLQMKE [Peptide 1]
BUdR Incorporation (A450) of iLRP-specific T cell clone L1 cells, Expt. 1 [9]: .018 A450
BUdR Incorporation (A450) of iLRP-specific T cell clone L1 cells, Expt. 2 [9]: .020 A450

NTGQRAVLKFAA [P15 (aa 81-92)]
Proliferation of clone L6 (in words) [8]: proliferated equally well

P10 (aa 61-72): iLRP 12-mer peptide, amino acids 61-72 (AARAIVAIENPA)
BUdR incorporation, CD8 iLRP-specific T cell clone L6 (Tc) ([8]; 100 ng/well stimulant with APC, two values given): .017, .017 A450
